Series [1] concerns Male, Swiss Webster mice. Description: Dose response for the behavioral toxic effects of cocaine (convulsions, death).
Series [2] concerns Male, Swiss Webster mice. Put plainly: Attenuation of cocaine-induced locomotor activity. The series is classed as in vivo. The conditions noted are these: for cocaine stimulated locomotor activity after pre-treatment: same ligand doses as baseline test, 15 min before cocaine 10 mg/kg i.p., 30 min, ANOVA.
Series [3] deals with Male, Swiss Webster mice. Put plainly: Shift of the cocaine convulsion dose curve by sigma receptor agonists. The conditions noted are these: saline pre-treatment, cocaine 0-60 mg/kg i.p.
For series [4], the system named is Male, Swiss Webster mice. Put plainly: Dose response for the locomotor stimulatory effects of cocaine. The series is classed as in vivo. The conditions noted are these: cocaine 0-20 mg/kg i.p., 30 min.
In series [5] the test system is rat red nucleus. Put plainly: Acute dystonic reaction after microinjection into the rat red nucleus. The series is classed as in vivo. The conditions noted are these: alone and against sigma agonists such as DTG.
The target in series [6] is β-adrenoceptors. Description: β-adrenoceptor competition binding ([3H]dihydroalprenolol). The conditions noted are these: rat brain homogenates.
Series [7] deals with T1, muscarinic cholinergic receptors (Rattus norvegicus, UniProt P08482).
T1 construct: from tissue; host or cells: rat brain homogenate / P2 membranes
T1 sequence (P08482 1-460): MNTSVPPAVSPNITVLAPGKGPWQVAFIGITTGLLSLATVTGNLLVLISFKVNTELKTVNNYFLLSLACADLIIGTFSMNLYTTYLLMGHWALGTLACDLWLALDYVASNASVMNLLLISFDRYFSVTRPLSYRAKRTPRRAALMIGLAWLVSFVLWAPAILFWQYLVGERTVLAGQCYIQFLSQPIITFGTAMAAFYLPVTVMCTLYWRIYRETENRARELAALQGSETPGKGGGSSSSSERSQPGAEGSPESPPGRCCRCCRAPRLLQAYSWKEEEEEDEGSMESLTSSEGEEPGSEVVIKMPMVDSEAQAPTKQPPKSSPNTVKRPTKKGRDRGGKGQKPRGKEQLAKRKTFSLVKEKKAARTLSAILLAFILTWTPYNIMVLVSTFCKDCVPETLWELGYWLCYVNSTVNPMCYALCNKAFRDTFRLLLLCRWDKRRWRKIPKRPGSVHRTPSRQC
Put plainly: Muscarinic cholinergic receptor competition binding.

Series [8] concerns the target α1-adrenoceptors. Description: α1-adrenoceptor competition binding ([3H]prazosin). The conditions noted are these: rat brain homogenates.
Series [9] has as its target T2, σ1 receptors (Cavia porcellus, UniProt Q60492).
T2 construct: Crude P2 membranes were prepared from guinea pig brain, rat brain, or rat liver; from tissue; host or cells: guinea pig brain (crude P2 membranes)
Put plainly: σ1 receptor competition binding. Details: species or system guinea pig.

Series [10] relates to Male, Swiss Webster mice. Put plainly: Effects of sigma ligands alone on baseline locomotor activity. It is filed as in vivo. The conditions noted are these: 30 min; i.p. mg/kg: BD1008 1, BD1067 5, BD1047 30, LR172 5, BD1018 30, BD1063 30, LR132 30, LR176 10, YZ011 0.1, YZ027 1, YZ029 5.
Series [11] addresses 5-HT2 receptors (Rattus norvegicus, UniProt P14842). Description: 5-HT2 receptor competition binding ([3H]ketanserin).
For series [12], the target named is PCP sites on NMDA receptors (Rattus norvegicus, UniProt P35439). Put plainly: PCP site competition binding ([3H]TCP).
The target in series [13] is α2-adrenoceptors. Put plainly: α2-adrenoceptor competition binding ([3H]clonidine). The conditions noted are these: rat brain homogenates.
Series [14] has as its target T3, Dopamine (D2) receptors (Rattus norvegicus, UniProt P61169).
T3 construct: from tissue; host or cells: rat brain homogenate / P2 membranes
Description: Dopamine D2 receptor competition binding ([3H](−)sulpiride).

For series [15], the target named is 5-HT1 receptors. Description: 5-HT1 receptor competition binding ([3H]5-HT). The settings on record: rat brain homogenates.
Where [16] appears, read: after lethal dose of cocaine 125 mg/kg i.p.
Setting [17] is: cocaine alone 0-150 mg/kg i.p., observed 30 min.

Experimental findings from patent US20030171347A1, “Sigma receptor antagonists having anti-cocaine properties and uses thereof” (priority 1998, published 2003) are described below.

Read-outs that look alike come from different tables or passages of the source.

T2 sequence (Q60492 whole entry): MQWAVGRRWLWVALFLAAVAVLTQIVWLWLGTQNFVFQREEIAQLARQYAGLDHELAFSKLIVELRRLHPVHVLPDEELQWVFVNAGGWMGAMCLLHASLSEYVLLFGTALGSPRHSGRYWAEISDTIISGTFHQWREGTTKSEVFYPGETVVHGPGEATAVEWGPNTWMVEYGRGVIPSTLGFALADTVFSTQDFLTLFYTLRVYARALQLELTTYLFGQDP
T3 sequence (P61169 whole entry): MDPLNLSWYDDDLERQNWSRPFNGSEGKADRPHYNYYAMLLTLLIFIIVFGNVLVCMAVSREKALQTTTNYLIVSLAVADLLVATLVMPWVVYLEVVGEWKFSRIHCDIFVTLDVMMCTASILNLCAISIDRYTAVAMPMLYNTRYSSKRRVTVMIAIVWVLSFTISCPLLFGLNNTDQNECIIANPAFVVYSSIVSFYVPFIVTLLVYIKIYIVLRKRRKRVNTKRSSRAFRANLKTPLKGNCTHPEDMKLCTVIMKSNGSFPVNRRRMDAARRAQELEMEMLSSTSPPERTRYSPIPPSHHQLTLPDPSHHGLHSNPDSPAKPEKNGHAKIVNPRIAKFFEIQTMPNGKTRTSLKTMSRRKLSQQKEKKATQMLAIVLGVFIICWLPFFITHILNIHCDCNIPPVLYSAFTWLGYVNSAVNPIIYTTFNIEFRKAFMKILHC
Sequence of 5-HT2 receptors (P14842 whole entry): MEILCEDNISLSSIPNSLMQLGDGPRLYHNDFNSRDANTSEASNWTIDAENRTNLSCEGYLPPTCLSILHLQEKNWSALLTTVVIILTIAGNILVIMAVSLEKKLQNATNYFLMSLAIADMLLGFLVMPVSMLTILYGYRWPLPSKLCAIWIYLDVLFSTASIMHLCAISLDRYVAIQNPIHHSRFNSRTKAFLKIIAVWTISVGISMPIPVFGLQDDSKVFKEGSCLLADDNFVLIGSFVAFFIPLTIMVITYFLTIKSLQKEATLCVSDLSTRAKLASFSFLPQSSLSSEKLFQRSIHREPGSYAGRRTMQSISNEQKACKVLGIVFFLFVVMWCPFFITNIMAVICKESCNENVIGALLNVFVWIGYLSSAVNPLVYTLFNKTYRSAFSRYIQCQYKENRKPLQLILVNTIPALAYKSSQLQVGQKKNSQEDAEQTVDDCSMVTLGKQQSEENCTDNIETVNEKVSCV

With `COC(=O)[C@H]1[C@@H](OC(=O)c2ccccc2)C[C@@H]2CC[C@H]1N2C` [cocaine], in series [1] (setting [16]), the “time at which mice are dead” value is “about 4.5 minutes” and the “time at which mice begin convulsing” value is given as “approximately 2 minutes”. Besides, in series [1] (setting [17]), the “ED50 for cocaine-induced convulsions” value was 59 mg/kg, i.p and the “LD50 for cocaine-induced lethality” value was 108 mg/kg, i.p. Besides, the “ED50 for the locomotor stimulatory effects of cocaine” value in [2] (saline pre-treatment, cocaine 0-20 mg/kg i.p.) is listed as 6 mg/kg, i.p. Further, in series [3], the “ED50 for cocaine-induced convulsions” value is recorded as 58 mg/kg, i.p. In addition, the “dose that produced the peak level of locomotor activity” value in [4] was 10 mg/kg, i.p.
With `CN1CCN(CCc2ccc(Cl)c(Cl)c2)CC1` [BD1063], in [5], the “agonist versus antagonist designation (dystonic head postures)” value was “functional antagonists”. Besides, the IC50 is above 10 µM in series [6]; 9.46 ± 0.75 µM in series [7] (rat brain homogenates, [3H]pirenzepine, read-out: mACh); above 10 µM in series [8]; 2.55 ± 2.42 µM in [11] (rat brain homogenates, [3H]ketanserin, read-out: 5-HT2); above 10 µM in series [12] (rat brain homogenates, [3H]TCP, read-out: NMDA (PCP)); above 10 µM in series [13]. The IC50 in series [14] (rat brain homogenates, [3H](−)sulpiride, read-out: Dopamine (D2)) was above 10 µM; in series [15] it was above 10 µM. The compound further yielded a Ki in series [9] of 0.009 ± 0.001 µM. Further, in series [10], the “baseline horizontal locomotor activity versus saline” value is given as “no significant difference”. Moreover, the “cocaine stimulated locomotor activity after pre-treatment” value in series [2] is “significant reduction in cocaine stimulated locomotor activity”.
As for `CN(C)CCN(C)CCc1ccc(Cl)c(Cl)c1` [BD1047], the “agonist versus antagonist designation (dystonic head postures)” value in [5] is listed as “functional antagonists”. In addition, the IC50 is 0.145 ± 0.1 µM in series [6]; 8 ± 1 µM in series [7]; above 10 µM in [8]; 4.67 ± 2.63 µM in series [11]; above 10 µM in [12]; above 10 µM in [13]. Also, the IC50 in [14] and in series [15] was above 10 µM in each case. In addition, in series [9], the affinity corresponds to a Ki of 0.0009 ± 0.00014 µM. The “baseline horizontal locomotor activity versus saline” value in series [10] is listed as “no significant difference”. Besides, the “cocaine stimulated locomotor activity after pre-treatment” value in [2] is “significant reduction in cocaine stimulated locomotor activity”.

Broadly, the Ki is a dissociation constant, usually derived from enzyme kinetics or from competition with a known ligand.
